{"source": "paper PMC4685874", "about": "“Bromotyrosine-derived alkaloids from the Caribbean sponge Aplysina lacunosa” (Beilstein Journal of Organic Chemistry, 2015)", "type_in_all_cases": "cell-based", "key": {"[1]": {"assay": "WST-1 cell proliferation (cytotoxicity) assay, MCF-7", "details": "human, MCF-7 breast cancer cell line, WST-1, incubated for 5 days", "protocol": "(§1) The cytotoxicity was determined using WST-1 cell proliferation assays. Targeting cell lines are L929 mouse fibroblasts, KB-31 epidermoid carcinoma, and MCF-7 breast cancer cell lines which were incubated for 5 days with the test substances. The acute toxicity was determined using the FS4-LTM conditional immortalization human fibroblasts cell line which was incubated for 24 hours with the test compounds."}, "[2]": {"assay": "WST-1 cell proliferation (cytotoxicity) assay, L929", "details": "L929 mouse fibroblasts, WST-1, incubated for 5 days", "protocol": "as §1"}, "[3]": {"assay": "WST-1 cell proliferation (cytotoxicity) assay, KB-31", "details": "human, WST-1, incubated for 5 days", "protocol": "as §1"}, "[4]": {"test_system": "MCF-7 breast cancer cell line", "assay": "WST-1 cell proliferation (cytotoxicity) assay, MCF-7", "details": "WST-1, incubated for 5 days", "protocol": "as §1"}, "[5]": {"assay": "Acute toxicity, WST-1 assay, FS4-LTM", "details": "human, FS4-LTM conditionally immortalized fibroblasts, FS4-LTM conditional immortalization human fibroblasts, incubated for 24 hours; read-out: Cytotoxicity (acute toxicity) IC50 FS4-LTM", "protocol": "as §1"}, "[6]": {"test_system": "FS4-LTM conditional immortalization human fibroblasts", "assay": "Acute toxicity, WST-1 assay, FS4-LTM", "details": "incubated for 24 hours, read-out: Cytotoxicity (acute toxicity) IC50 FS4-LTM", "protocol": "as §1"}, "[7]": {"test_system": "KB-31 epidermoid carcinoma cells", "assay": "WST-1 cell proliferation (cytotoxicity) assay, KB-31", "details": "WST-1, incubated for 5 days", "protocol": "as §1"}, "[8]": {"details": "KB-31 epidermoid carcinoma cells"}}, "data": [{"smiles": "COC1=C(Br)[C@H](O)[C@@]2(C=C1Br)CC(C(=O)NCCCOc1ccc(CCN)cc1Br)=NO2", "note": "[Compound 4, 14-debromoaraplysillin I]", "values": [{"measurement": "IC50 at 5 days", "setting": "[1]; MCF-7 breast cancer cells", "value": 78.6, "unit": "µM"}, {"measurement": "IC50 at 5 days", "setting": "[2]", "value": 94.3, "unit": "µM"}]}, {"smiles": "COC1=C(Br)[C@@H]2OC(=O)C[C@]2(O)C=C1Br", "note": "[Compound 16, aeroplysinin-2]", "values": [{"measurement": "IC50 at 5 days", "setting": "[1]", "value": 96.3, "unit": "µM"}]}, {"smiles": "CNc1nc(CCCNC(=O)C2=NO[C@]3(C=C(Br)C(OC)=C(Br)[C@@H]3O)C2)c[nH]1", "note": "[Compound 15, N-methyl-aerophobin-2]", "values": [{"measurement": "IC50 at 5 days", "setting": "[2]", "value": 55.9, "unit": "µM"}, {"measurement": "IC50 at 5 days", "setting": "[3]; [8]", "value": 48.9, "unit": "µM"}]}, {"smiles": "COC1=C(Br)[C@H](O)[C@@]2(C=C1Br)CC(C(=O)NC[C@@H](O)c1cc(Br)c(OCCCNC(C)=O)c(Br)c1)=NO2", "note": "[Compound 2, aplysinin A]", "values": [{"measurement": "IC50 at 5 days", "setting": "[1]; MCF-7 breast cancer cells", "value": 78, "unit": "µM"}, {"measurement": "IC50", "setting": "[4]", "value": 77.5, "unit": "µM"}, {"measurement": "IC50 at 24 hours", "setting": "[5]", "value": 32, "unit": "µM"}, {"measurement": "IC50", "setting": "[6]", "value": 32.2, "unit": "µM"}, {"measurement": "IC50 at 5 days", "setting": "[3]; [8]", "value": 26, "unit": "µM"}, {"measurement": "IC50", "setting": "[7]", "value": 25.8, "unit": "µM"}]}, {"smiles": "COC(=O)Cc1cc(Br)c(O)c(Br)c1O", "note": "[Compound 17, subereaphenol B]", "values": [{"measurement": "IC50 at 5 days", "setting": "[1]; MCF-7 breast cancer cells", "value": 64.8, "unit": "µM"}]}, {"smiles": "COC1=C(Br)[C@H](O)[C@@]2(C=C1Br)CC(C(=O)NCCc1cc(Br)c(OCC(O)CNC(=O)C3=NO[C@]4(C=C(Br)C(OC)=C(Br)[C@@H]4O)C3)c(Br)c1)=NO2", "note": "(stereo partly shown) [Compound 7, 19-deoxyfistularin-3]", "values": [{"measurement": "IC50 at 5 days", "setting": "[1]", "value": 60, "unit": "µM"}]}, {"smiles": "COC1=C(Br)[C@H](O)[C@@]2(C=C1Br)CC(C(=O)NCC(O)COc1c(Br)cc(C(O)CNC(=O)C3=NO[C@]4(C=C(Br)C(OC)=C(Br)[C@@H]4O)C3)cc1Br)=NO2", "note": "(stereo partly shown) [Compound 5, fistularin-3]", "values": [{"measurement": "IC50 at 5 days", "setting": "[1]", "value": 207, "unit": "µM"}]}, {"smiles": "COC1=C(Br)[C@H](O)[C@@]2(C=C1Br)CC(C(=O)NCCCOc1c(Br)cc(C(O)CNC(=O)C3=NO[C@]4(C=C(Br)C(OC)=C(Br)[C@@H]4O)C3)cc1Br)=NO2", "note": "(stereo partly shown) [Compound 8, 11-deoxyfistularin-3]", "values": [{"measurement": "IC50 at 5 days", "setting": "[1]; MCF-7 breast cancer cells", "value": 47.2, "unit": "µM"}, {"measurement": "IC50 at 24 hours", "setting": "[5]", "value": 87.3, "unit": "µM"}]}, {"smiles": "COC1=C(Br)[C@H](O)[C@@]2(C=C1Br)CC(C(=O)NCCCOc1c(Br)cc(CCNC(=O)C3=NO[C@]4(C=C(Br)C(OC)=C(Br)[C@@H]4O)C3)cc1Br)=NO2", "note": "[Compound 6, 11,19-dideoxyfistularin-3]", "values": [{"measurement": "IC50 at 5 days", "setting": "[2]", "value": 118, "unit": "µM"}, {"measurement": "IC50 at 5 days", "setting": "[3]; KB-31 epidermoid carcinoma", "value": 88.2, "unit": "µM"}]}, {"smiles": "COC1=C(Br)[C@H](O)[C@@]2(C=C1Br)CC(C(=O)NCCc1cc(Br)c(OCCCN)c(Br)c1)=NO2", "note": "[Compound 10, hexadellin B]", "values": [{"measurement": "IC50 at 5 days", "setting": "[1]; MCF-7 breast cancer cells", "value": 90.6, "unit": "µM"}, {"measurement": "IC50 at 24 hours", "setting": "[5]", "value": 73.4, "unit": "µM"}]}, {"smiles": "COC1=C(Br)[C@H](O)[C@@]2(C=C1Br)CC(C(=O)NCCCOc1ccc([C@H](O)CNC(=O)C3=NO[C@]4(C=C(Br)C(OC)=C(Br)[C@@H]4O)C3)cc1Br)=NO2", "note": "[Compound 1, 14-debromo-11-deoxyfistularin-3]", "values": [{"measurement": "IC50 at 5 days", "setting": "[3]; [8]", "value": 69, "unit": "µM"}, {"measurement": "IC50", "setting": "[7]", "value": 68.8, "unit": "µM"}]}]}
